Test results published in ChEMBL document CHEMBL1149141, “Crystal structures of the vitamin D nuclear receptor liganded with the vitamin D side chain analogues calcipotriol and seocalcitol, receptor agonists of clinical importance. Insights into a structural basis for the switching of calcipotriol to a receptor antagonist by further side chain …” (J Med Chem, 2004).
pEC50: −log10 of the molar value.

Legend:
[1] = target: T1, Vitamin D3 receptor (Homo sapiens) (UniProt P11473); assay: Binding of compound towards human Vitamin D3 receptor was determined in vitro
T1 sequence (whole entry): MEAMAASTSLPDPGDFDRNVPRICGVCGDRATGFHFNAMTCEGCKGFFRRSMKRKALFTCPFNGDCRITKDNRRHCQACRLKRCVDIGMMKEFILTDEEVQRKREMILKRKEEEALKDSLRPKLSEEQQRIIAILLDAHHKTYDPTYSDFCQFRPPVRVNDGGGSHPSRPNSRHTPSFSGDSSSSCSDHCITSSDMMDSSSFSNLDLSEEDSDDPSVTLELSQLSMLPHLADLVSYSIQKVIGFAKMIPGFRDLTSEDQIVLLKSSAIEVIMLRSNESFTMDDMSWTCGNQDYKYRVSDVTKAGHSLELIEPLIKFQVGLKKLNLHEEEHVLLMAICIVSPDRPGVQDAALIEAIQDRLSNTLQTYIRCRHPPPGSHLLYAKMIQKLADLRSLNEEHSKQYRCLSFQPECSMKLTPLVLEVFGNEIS

[2] = target: T2, Vitamin D3 receptor (Homo sapiens, UniProt P11473); assay: Effective concentration required for inhibition of Vitamin D3 receptor
T2 sequence (P11473 whole entry): T1 sequence (whole entry)

| SMILES | Binding [1] | pEC50 [2] |
| --- | --- | --- |
| C=C1/C(=C\C=C2/CCC[C@]3(C)[C@@H]([C@H](C)/C=C/[C@@H](O)C4CC4)CC[C@@H]23)C[C@@H](O)C[C@@H]1O | 90% |  |
| C=C1/C(=C\C=C2/CCC[C@]3(C)[C@@H]([C@H](C)/C=C/C=C/C(O)(CC)CC)CC[C@@H]23)C[C@@H](O)C[C@@H]1O | 80% |  |
| C=C1/C(=C\C=C2/CCC[C@]3(C)[C@@H]([C@H](C)/C=C/[C@@H](O)C4(C(=O)OCCCC)CC4)CC[C@@H]23)C[C@@H](O)C[C@@H]1O |  | 9.40 |
| C=C1/C(=C\C=C2/CCC[C@]3(C)[C@@H]([C@H](C)/C=C/[C@@H](O)C4(/C=C/C(=O)OCC)CC4)CC[C@@H]23)C[C@@H](O)C[C@@H]1O |  | 9.46 |
